Source: the kinase profiling compilation of Christmann-Franck et al. (2016)

Tests used:
Assay in all cases: radiometric filter-binding kinase assay, Kinase HotSpot
Conditions in all cases: compound 0.5 µM; ATP 10 µM
[1] = biological target: ADRBK1 (human) (UniProt P25098)
[2] = biological target: RET (human) (UniProt P07949)
[3] = biological target: CAMK1G (human) (UniProt Q96NX5)
[4] = biological target: SRMS (human) (UniProt Q9H3Y6)
[5] = biological target: PRKCD (human) (UniProt Q05655)
[6] = biological target: NEK11 (human) (UniProt Q8NG66)
[7] = biological target: MST4 (human) (UniProt Q9P289)
[8] = biological target: PTK2 (human) (UniProt Q05397)
[9] = biological target: RPS6KB2 (human) (UniProt Q9UBS0)
[10] = biological target: MATK (human) (UniProt P42679)
[11] = biological target: TAOK2 (human) (UniProt Q9UL54)
[12] = biological target: PTK6 (human) (UniProt Q13882)
[13] = biological target: STK3 (human) (UniProt Q13188)
[14] = biological target: ROCK2 (human) (UniProt O75116)
[15] = biological target: IKBKB (human) (UniProt O14920)
[16] = biological target: ULK1 (human) (UniProt O75385)
[17] = biological target: FES (human) (UniProt P07332)
[18] = biological target: MET (human) (UniProt P08581)
[19] = biological target: CAMK2G (human) (UniProt Q13555)
Sequence of CAMK2G (human) (Q13555 whole entry, looked up): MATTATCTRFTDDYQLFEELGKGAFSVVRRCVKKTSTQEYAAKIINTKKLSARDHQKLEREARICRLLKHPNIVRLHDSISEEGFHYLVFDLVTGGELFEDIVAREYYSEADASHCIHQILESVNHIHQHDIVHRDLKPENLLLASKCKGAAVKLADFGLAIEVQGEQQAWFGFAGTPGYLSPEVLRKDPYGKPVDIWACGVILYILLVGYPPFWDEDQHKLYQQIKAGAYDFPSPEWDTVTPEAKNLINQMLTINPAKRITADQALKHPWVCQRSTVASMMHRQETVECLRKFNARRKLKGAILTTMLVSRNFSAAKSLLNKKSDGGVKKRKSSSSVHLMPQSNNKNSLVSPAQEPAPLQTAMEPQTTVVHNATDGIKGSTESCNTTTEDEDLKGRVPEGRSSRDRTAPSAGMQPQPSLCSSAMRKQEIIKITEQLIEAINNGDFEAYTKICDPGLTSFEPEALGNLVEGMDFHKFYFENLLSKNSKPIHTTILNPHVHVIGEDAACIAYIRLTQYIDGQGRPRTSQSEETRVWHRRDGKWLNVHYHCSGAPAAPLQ

[20] = biological target: MAPK9 (human) (UniProt P45984)
[21] = biological target: DYRK1B (human) (UniProt Q9Y463)
[22] = biological target: NUAK1 (human) (UniProt O60285)
Sequence of NUAK1 (human) (O60285 whole entry, looked up): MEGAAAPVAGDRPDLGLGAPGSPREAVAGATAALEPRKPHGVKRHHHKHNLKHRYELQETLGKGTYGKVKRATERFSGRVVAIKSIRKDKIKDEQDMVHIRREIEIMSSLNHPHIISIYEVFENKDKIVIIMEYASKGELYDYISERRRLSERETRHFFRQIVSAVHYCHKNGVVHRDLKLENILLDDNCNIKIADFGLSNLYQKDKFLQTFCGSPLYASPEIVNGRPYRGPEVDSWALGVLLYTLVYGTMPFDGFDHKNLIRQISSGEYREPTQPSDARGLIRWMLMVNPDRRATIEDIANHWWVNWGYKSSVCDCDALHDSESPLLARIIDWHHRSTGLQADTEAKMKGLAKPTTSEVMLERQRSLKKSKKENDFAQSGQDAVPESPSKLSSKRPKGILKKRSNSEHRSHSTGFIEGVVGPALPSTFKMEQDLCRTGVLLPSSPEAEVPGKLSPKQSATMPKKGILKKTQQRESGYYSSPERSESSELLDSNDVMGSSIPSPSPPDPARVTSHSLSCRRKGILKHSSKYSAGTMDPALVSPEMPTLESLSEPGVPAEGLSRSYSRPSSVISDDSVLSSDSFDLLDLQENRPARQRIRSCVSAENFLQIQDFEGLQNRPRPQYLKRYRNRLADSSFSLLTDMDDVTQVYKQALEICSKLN

[23] = biological target: OXSR1 (human) (UniProt O95747)
[24] = biological target: EPHA7 (human) (UniProt Q15375)
[25] = biological target: MUSK (human) (UniProt O15146)
Sequence of MUSK (human) (O15146 whole entry, looked up): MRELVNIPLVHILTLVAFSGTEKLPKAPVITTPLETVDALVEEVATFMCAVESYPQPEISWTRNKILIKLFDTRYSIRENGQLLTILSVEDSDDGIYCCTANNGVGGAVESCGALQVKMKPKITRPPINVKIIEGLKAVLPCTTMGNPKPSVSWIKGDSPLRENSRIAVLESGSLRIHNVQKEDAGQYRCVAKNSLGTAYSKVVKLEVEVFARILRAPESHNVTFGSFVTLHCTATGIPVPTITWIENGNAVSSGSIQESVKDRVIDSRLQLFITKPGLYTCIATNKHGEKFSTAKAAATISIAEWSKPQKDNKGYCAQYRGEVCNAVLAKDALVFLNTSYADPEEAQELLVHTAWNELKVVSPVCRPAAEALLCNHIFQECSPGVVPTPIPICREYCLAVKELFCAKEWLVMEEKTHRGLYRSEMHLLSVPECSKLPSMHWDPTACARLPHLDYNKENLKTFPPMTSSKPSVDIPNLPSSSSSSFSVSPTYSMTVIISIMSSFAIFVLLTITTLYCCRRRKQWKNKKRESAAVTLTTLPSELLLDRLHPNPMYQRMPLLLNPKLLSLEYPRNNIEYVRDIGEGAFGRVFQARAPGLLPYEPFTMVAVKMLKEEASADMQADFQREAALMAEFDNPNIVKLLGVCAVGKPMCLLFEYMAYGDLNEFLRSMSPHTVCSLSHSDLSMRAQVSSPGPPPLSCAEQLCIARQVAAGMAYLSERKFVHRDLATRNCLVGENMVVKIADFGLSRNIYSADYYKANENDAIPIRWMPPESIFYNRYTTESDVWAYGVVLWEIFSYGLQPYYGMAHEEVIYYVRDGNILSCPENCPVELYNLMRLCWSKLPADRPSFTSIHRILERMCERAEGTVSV

[26] = biological target: CAMK2D (human) (UniProt Q13557)
[27] = biological target: PTK2B (human) (UniProt Q14289)
[28] = biological target: NEK9 (human) (UniProt Q8TD19)
Sequence of NEK9 (human) (Q8TD19 whole entry, looked up): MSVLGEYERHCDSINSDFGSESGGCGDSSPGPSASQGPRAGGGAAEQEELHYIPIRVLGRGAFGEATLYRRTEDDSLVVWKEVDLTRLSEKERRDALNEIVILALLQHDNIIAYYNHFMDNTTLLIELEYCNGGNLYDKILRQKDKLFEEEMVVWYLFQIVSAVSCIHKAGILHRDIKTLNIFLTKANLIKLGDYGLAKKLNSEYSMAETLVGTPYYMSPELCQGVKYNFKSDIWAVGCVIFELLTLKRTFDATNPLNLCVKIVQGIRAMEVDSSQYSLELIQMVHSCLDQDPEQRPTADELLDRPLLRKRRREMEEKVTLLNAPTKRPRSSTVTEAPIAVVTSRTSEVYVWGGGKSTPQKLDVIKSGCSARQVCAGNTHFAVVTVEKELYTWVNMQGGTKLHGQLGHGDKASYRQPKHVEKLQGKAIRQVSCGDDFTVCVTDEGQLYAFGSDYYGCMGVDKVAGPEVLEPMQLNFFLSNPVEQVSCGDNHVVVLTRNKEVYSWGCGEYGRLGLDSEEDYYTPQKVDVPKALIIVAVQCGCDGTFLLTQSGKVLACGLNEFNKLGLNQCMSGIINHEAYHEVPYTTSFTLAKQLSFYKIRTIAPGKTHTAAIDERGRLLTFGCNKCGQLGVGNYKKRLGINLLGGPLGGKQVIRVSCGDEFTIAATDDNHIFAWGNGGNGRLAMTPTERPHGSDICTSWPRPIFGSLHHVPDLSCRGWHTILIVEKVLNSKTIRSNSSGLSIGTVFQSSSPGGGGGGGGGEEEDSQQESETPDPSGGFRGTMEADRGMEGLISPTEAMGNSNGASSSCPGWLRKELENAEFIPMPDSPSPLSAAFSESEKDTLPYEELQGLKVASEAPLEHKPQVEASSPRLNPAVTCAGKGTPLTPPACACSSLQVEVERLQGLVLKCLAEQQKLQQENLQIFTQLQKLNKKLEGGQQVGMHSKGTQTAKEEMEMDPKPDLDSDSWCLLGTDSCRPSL

[29] = biological target: TSSK2 (human) (UniProt Q96PF2)
[30] = biological target: FRK (human) (UniProt P42685)
[31] = biological target: PIM2 (human) (UniProt Q9P1W9)
[32] = biological target: MAP4K4 (human) (UniProt O95819)
[33] = biological target: GSK3B (human) (UniProt P49841)
[34] = biological target: MARK1 (human) (UniProt Q9P0L2)
[35] = biological target: IKBKE (human) (UniProt Q14164)
[36] = biological target: STK11 (human) (UniProt Q15831)
[37] = biological target: NEK7 (human) (UniProt Q8TDX7)
[38] = biological target: EPHA1 (human) (UniProt P21709)
[39] = biological target: CDC42BPA (human) (UniProt Q5VT25)
[40] = biological target: CSNK1G2 (human) (UniProt P78368)
[41] = biological target: PAK3 (human) (UniProt O75914)
[42] = biological target: PAK1 (human) (UniProt Q13153)
Sequence of PAK1 (human) (Q13153 whole entry, looked up): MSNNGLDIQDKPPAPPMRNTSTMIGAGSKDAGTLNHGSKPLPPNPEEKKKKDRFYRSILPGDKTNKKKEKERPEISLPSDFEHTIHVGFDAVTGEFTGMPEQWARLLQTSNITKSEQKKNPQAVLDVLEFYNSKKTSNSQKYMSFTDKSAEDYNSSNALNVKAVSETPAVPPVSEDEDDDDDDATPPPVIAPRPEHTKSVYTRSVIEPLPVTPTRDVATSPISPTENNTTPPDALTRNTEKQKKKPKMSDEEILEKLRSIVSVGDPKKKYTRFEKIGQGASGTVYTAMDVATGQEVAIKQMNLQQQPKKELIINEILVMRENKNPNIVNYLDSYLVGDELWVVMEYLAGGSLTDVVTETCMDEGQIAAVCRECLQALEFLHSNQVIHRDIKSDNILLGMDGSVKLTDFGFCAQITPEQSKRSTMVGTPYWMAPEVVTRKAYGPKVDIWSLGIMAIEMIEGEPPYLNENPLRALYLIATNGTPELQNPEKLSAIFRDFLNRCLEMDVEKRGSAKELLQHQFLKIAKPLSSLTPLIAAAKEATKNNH

Sequence of SRMS (human) (Q9H3Y6 whole entry, looked up): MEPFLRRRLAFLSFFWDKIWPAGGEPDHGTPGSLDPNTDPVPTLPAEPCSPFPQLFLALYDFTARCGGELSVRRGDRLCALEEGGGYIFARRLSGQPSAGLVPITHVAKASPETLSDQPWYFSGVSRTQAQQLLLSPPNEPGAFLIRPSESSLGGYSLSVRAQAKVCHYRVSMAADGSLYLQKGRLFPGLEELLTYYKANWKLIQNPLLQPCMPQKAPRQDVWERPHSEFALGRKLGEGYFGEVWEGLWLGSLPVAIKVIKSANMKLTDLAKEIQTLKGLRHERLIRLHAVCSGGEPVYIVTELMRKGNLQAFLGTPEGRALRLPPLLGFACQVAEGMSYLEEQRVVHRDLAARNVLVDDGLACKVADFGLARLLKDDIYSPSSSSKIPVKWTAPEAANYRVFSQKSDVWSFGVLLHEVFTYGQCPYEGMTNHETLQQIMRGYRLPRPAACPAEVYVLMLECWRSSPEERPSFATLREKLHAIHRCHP
Sequence of ADRBK1 (human) (P25098 whole entry, looked up): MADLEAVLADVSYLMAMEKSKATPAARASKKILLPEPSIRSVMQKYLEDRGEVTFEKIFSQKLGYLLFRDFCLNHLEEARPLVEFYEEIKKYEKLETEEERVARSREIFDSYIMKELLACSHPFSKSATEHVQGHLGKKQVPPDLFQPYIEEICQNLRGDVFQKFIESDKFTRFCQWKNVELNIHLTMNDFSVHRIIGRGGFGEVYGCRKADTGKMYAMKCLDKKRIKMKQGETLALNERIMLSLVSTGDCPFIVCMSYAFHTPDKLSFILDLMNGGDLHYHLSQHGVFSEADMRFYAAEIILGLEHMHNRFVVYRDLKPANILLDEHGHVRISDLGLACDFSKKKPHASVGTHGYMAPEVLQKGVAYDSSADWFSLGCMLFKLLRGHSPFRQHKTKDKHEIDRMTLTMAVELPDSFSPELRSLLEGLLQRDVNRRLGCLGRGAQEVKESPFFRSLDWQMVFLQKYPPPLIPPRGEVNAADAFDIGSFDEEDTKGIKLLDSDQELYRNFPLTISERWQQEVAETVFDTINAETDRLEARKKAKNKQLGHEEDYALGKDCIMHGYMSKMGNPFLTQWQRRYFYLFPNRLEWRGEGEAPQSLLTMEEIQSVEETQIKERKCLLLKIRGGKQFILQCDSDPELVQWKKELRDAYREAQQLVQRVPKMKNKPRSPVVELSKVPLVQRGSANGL

Nc1nc(Nc2ccc(S(N)(=O)=O)cc2)nn1C(=S)Nc1c(F)cccc1F
residual activity [1]: 97.8% | residual activity [2]: 3.09% | residual activity [3]: 95.9% | residual activity [4]: 94% | residual activity [5]: 22.2% | residual activity [6]: 101% | residual activity [7]: 4.54% | residual activity [8]: 25.3% | residual activity [9]: 96.2% | residual activity [10]: 133% | residual activity [11]: 11.5% | residual activity [12]: 34.8% | residual activity [13]: 1.33% | residual activity [14]: 6.22% | residual activity [15]: 49.3% | residual activity [16]: 5.03% | residual activity [17]: 10.2% | residual activity [18]: 40.4% | residual activity [19]: 15.6% | residual activity [20]: 80.9% | residual activity [21]: 14.1% | residual activity [22]: 2.13% | residual activity [23]: 67.6% | residual activity [24]: 14.2% | residual activity [25]: 8.02% | residual activity [26]: 15.6% | residual activity [27]: 33.6% | residual activity [28]: 39.1% | residual activity [29]: 91.3% | residual activity [30]: 70.6% | residual activity [31]: 106% | residual activity [32]: 4.46% | residual activity [33]: 9.03% | residual activity [34]: 2.68% | residual activity [35]: 67.2% | residual activity [36]: 23.5% | residual activity [37]: 82.6% | residual activity [38]: 37.4% | residual activity [39]: 54.6% | residual activity [40]: 14.8% | residual activity [41]: 35.4% | residual activity [42]: 29%

O=c1cc(-c2cccc3c2Sc2ccccc2S3)oc(N2CCOCC2)c1
residual activity [1]: 79% | residual activity [2]: 82.4% | residual activity [3]: 99.4% | residual activity [4]: 93.8% | residual activity [5]: 91.9% | residual activity [6]: 88.5% | residual activity [7]: 90.4% | residual activity [8]: 113% | residual activity [9]: 102% | residual activity [10]: 102% | residual activity [11]: 101% | residual activity [12]: 90.6% | residual activity [13]: 101% | residual activity [14]: 109% | residual activity [15]: 101% | residual activity [16]: 91.9% | residual activity [17]: 104% | residual activity [18]: 107% | residual activity [19]: 106% | residual activity [20]: 97.7% | residual activity [21]: 101% | residual activity [22]: 93.1% | residual activity [23]: 96.1% | residual activity [24]: 106% | residual activity [25]: 89.1% | residual activity [26]: 104% | residual activity [27]: 106% | residual activity [28]: 110% | residual activity [29]: 97.7% | residual activity [30]: 99.5% | residual activity [31]: 118% | residual activity [32]: 93.2% | residual activity [33]: 98.7% | residual activity [34]: 100% | residual activity [35]: 96.5% | residual activity [36]: 96.5% | residual activity [37]: 105% | residual activity [38]: 84.7% | residual activity [39]: 106% | residual activity [40]: 93.3% | residual activity [41]: 95% | residual activity [42]: 92.3%

NC(=O)c1ccc(N(C(N)=O)c2c(F)cccc2F)nc1-c1ccc(F)cc1F
residual activity [1]: 99% | residual activity [2]: 93.1% | residual activity [3]: 108% | residual activity [4]: 92.9% | residual activity [5]: 104% | residual activity [6]: 92.9% | residual activity [7]: 117% | residual activity [8]: 98.9% | residual activity [9]: 100% | residual activity [10]: 77.6% | residual activity [11]: 98.7% | residual activity [12]: 98.7% | residual activity [13]: 94.1% | residual activity [14]: 97.7% | residual activity [15]: 94.8% | residual activity [16]: 104% | residual activity [17]: 99% | residual activity [18]: 89.4% | residual activity [19]: 105% | residual activity [20]: 93.5% | residual activity [21]: 97.1% | residual activity [22]: 108% | residual activity [23]: 96.9% | residual activity [24]: 79.9% | residual activity [25]: 102% | residual activity [26]: 87.3% | residual activity [27]: 102% | residual activity [28]: 104% | residual activity [29]: 88.6% | residual activity [30]: 106% | residual activity [31]: 98.3% | residual activity [32]: 108% | residual activity [33]: 101% | residual activity [34]: 132% | residual activity [35]: 88% | residual activity [36]: 99.5% | residual activity [37]: 90.1% | residual activity [38]: 99.1% | residual activity [39]: 93.8% | residual activity [40]: 99.6% | residual activity [41]: 98.3% | residual activity [42]: 110%
